Test results taken from a melting point compilation (Tetko et al.; mined from patent text by program, amines drawn as free bases though some values may be those of a salt).

| Structure (SMILES) | melting point [°C] |
| --- | --- |
| Fc1ccc2[nH]c3c(c2c1)CN(CCc1ccncc1)CC3 | 233 to 235 |
| CN(C)c1ccc(C(=O)CCCN2CCC(=C(c3ccccc3)c3ccccc3)CC2)cc1 | 110 to 112 |
| O=C(NCCc1ccccn1)c1ccccc1-c1ccccc1CNS(=O)(=O)c1cccc(F)c1 | 123 |
| OCc1cn2c(n1)sc1ccccc12 | 131 |
| CC(CNC(c1ccccc1)c1ccccc1)NC(c1ccccc1)c1ccccc1 (stereo not given) | 72 to 75 |
| Cc1ccc(CO)cc1NC(=O)c1cccc([N+](=O)[O-])c1 | 198 to 200 |
| O=C(OCc1ccccc1)N1CCN(c2cc(=O)[nH]cn2)CC1 | 247 to 249 |
| C=CCc1c(O)c(Br)cc2c1[C@H](CCNC(=O)CC)CC2 | 85 to 87 |
| O=Cc1ccccc1NC1CCN(Cc2ccccc2)CC1 | 87 to 90 |
| COc1ccc(-c2ccc3cnc(Nc4cc5c(cc4F)CCC(=O)N5)nn23)cn1 | 295 |
| CC(=O)Oc1ccc(C2(c3ccc(OC(C)=O)cc3)C(c3ccccc3)C2(Cl)Cl)cc1 (stereo not given) | 74 to 75 |
| Cc1nc(N)c2nc(CCO)n(NC3CCOCC3)c2c1C | 190 to 192 |
| O=C(Nc1cccnc1NCc1ccc(Cl)cc1)c1ccccc1Cl | 117 to 119 |
| CCOC(=O)CC(=O)N(C)c1ccc(Cl)cc1N | 112 to 114 |
| COCCOCCn1cc(C(=O)NCc2ccc(Cl)cc2)c(=O)c2cc(CN(C)CC#N)ccc21 | 118 to 120 |
| CCON1C(C)(C)CC(OC(=O)c2ccccc2)CC1(C)C | 76 to 78 |
| COc1ccc(CCC(N[C@@H](C)C(=O)N(CC(=O)O)C2Cc3ccccc3C2)C(=O)O)cc1OC (stereo not given in full) | 160 to 165 |
| CCCOC(=O)Cc1ccc(N[C@@H](CCC(N)=O)C(=O)O)cc1 | 178 to 179 |
| CSC(=NCc1ccc(CCO)cc1)NC#N | 164 to 165 |
| NCC1Cc2cccc(-c3ccccc3C(F)(F)F)c2O1 (stereo not given) | 109 to 111 |
| CC1(C)CCc2c(N3CCOCC3)nc3sc4c(NCc5ccncc5)ncnc4c3c2C1 | 240 to 241 |
| O=c1oc(-c2ccccc2)cc(O)c1C(SC1CCCCC1)c1ccccc1 (stereo not given) | 189 to 191 |
| C=CCC(C#N)(C#N)Cc1ccc(C#N)cc1 | 81.9 |
| CCCCCCCN(CC(c1ccccc1)c1ccccc1)C(=O)Nc1c(C)cccc1C | 171 to 173 |
| COc1ccc(N2CCOCC2)c2sc(-c3nc4ccccc4[nH]3)nc12 | 284 to 286 |

| Structure (SMILES) | melting point [°C] |
| --- | --- |
| Oc1ccc(C(O)CNCCCn2cnc3ccccc32)cc1 (stereo not given) | 146 to 148 |
| CC1CCCC(C)C1=CC1C(C(=O)O)C1(C)C (stereo not given) | 96 |
| ClC(=NN=Cc1cccnc1)c1cccnc1 | 103 to 105 |
| CCOC(=O)C(C(=O)OCC)C(N)c1ccc([N+](=O)[O-])cc1C(N)C(C(=O)OCC)C(=O)OCC (stereo not given) | 148 to 151 |
| CC(=O)OCC1C(O)C2OC(C)(C)OC2C2NC(=O)c3cc4c(cc3C12)OCO4 (stereo not given) | > 200 |
| COc1cc(OC)c2cc(-c3ccccc3)c(=O)[nH]c2c1 | 257 to 258 |
| CCOC(=O)c1csc(/C=C/C(=O)c2ccc3c(c2)C2(C)C4(C)CCC(C4)C2(C)O3)c1 (stereo not given) | 149 to 151 |
| COc1ccc(C2C3=C(COC3=O)Nc3ccc4cn[nH]c4c32)cc1O (stereo not given) | 243 to 245 |
| CC(=O)NCCCc1ccc(Cl)c2occc12 | 61 to 62 |
| C=CCOC(=O)c1cc(NC(=O)OC(C)(C)C)ccc1OCC=C | 77 to 78 |
| CC(C)OC(=O)c1cc2c(cn1)[nH]c1cccc(Cc3ccccc3Cl)c12 | 258 to 260 |
| COc1ccc(Cn2cnc3c(-c4ccco4)nc(I)nc32)cc1 | 145 to 148 |
| O=C(O)c1cc(F)c(F)c(C(F)(F)F)c1F | 87 to 90 |
| COc1cc(C=O)cc(C#N)c1OC | 109 to 112 |
| Cc1ccc2oc(OCC(=O)N(c3ccccc3)C(C)C)nc2c1 | 108 |
| C#CCSc1nc[nH]n1 | 102 to 104 |
| COC(=O)c1ccc(SC#N)c([N+](=O)[O-])c1 | 93 to 96 |
| COc1cccc(OC)c1-c1cc(C(=O)NC2(C(=O)O)C3CCCC2CCC3)nn1-c1ccc(C(=O)N(C)CCCN(C)C)cc1C(C)C (stereo not given) | 160 |
| O=S(=O)(Cl)c1ccc(Nc2nccc(-c3ccc(C(F)(F)F)cc3)n2)cc1 | 186 to 188 |
| Cc1nc(-c2ccc(O)c(C)c2O)no1 | 224 to 225 |
| O=C(O)COc1ccc(S(=O)(=O)C(Br)(Br)Br)cc1 | 238 to 246 |
| O=C1N=C(N2CCOCC2)SC1c1cncc(-c2cc3c(c(C45CC6CC(CC(C6)C4)C5)c2)OCO3)c1 (stereo not given) | 255 to 258 |
| O=C(c1cc2cc(Br)ccc2o1)C12CC3CC(CC(C3)C1)C2 | 115 to 117 |
| COCOC1CCC2(C)C(=CCC3C2CCC2(C)C(COCc4ccccc4)CCC32)C1 (stereo not given) | 75 to 76 |
| NCCCCCCOc1ccccc1C(=O)Nc1ccc(C(=O)N2CCCCc3ccccc32)cc1 | 136 to 138 |

| Structure (SMILES) | melting point [°C] |
| --- | --- |
| O=Cc1ccc(OCCc2coc(-c3ccccc3)n2)cc1 | 92 to 97 |
| CC(C)(O)C#Cc1ccc(C#N)cc1Cl | 63 to 65 |
| Fc1ccc(C=Cc2nc(CNc3ccc(CCCCn4ccnn4)cc3)co2)c(C(F)(F)F)c1 | 109 to 111 |
| CCOC(=O)C1C(=O)CC(=O)CC1c1ccccc1 (stereo not given) | 86 to 87 |
| CCN1CCCC1c1cccc(OC(=O)NC)c1 (stereo not given) | 67 to 69 |
| O=C1c2ccccc2C(=O)c2c1c(Oc1ccc(CCCO)cc1)c1ccc(Sc3ccccc3)cc1c2Oc1ccc(CCCO)cc1 | 140 to 148 |
| Cc1ccccc1C(=O)Nc1ccc(C(=O)N2CCc3cnoc3-c3ccccc32)cc1 | 257 to 260 |
| N#CC(Cl)CS(=O)(=O)c1ccc(OC(F)(F)C(Cl)Cl)cc1 (stereo not given) | 109 |
| Cc1ccccc1CNC(=S)c1ccc2c(c1)N(C(C)CN1CCCC1)c1ccccc1S2 (racemic) | 110 |
| CC(C)(C)c1cc2c(c(C(C)(C)C)c1O)CCO2 | 113 |
| Cc1cn(C)c2cc(C(F)(F)F)c(O)cc12 | 256 |
| Oc1ccc2c(c1)OCC(c1ccc(C(F)(F)F)cc1)C2c1ccc(OCCN2CCCCC2)cc1 (stereo not given) | 117 to 119 |
| CCCCCCCNc1cccc(O)c1 | 27 to 30 |
| CO[C@]1(c2csc(Sc3ccc(/C(C)=N/O)cc3)c2)CCO[C@@H]1C (racemic) | 89 to 90 |
| O=C(NC1N=C(c2ccccc2F)c2ccccc2NC1=O)c1ccc(Cl)cc1 (racemic) | 258 to 259 |
| CC(C)(C)c1cc(-c2ccc(NC(=O)c3ccccc3C(=O)O)cc2)cc(C(C)(C)C)c1O | 196 to 198 |
| CC(C)(C)OC(=O)N1CCN(C(=O)c2ccc(-c3[nH]nc4c3C(=O)c3c(NC(=O)NN5CCOCC5)cccc3-4)s2)CC1 | 225 to 226 |
| O=C(Nc1ccc(C2=CCN(C(=O)Nc3ccc(OCCO)cc3C(F)(F)F)CC2)cc1)Nc1ccccc1F | 110 to 112 |
| O=C(CC1COCCO1)NC1CCC(CCN2CCN(c3nccc4c3OCC4)CC2)CC1 (stereo not given) | 181 |
| CSc1ccc(C2OC(=O)NC2CO)cc1 (stereo not given) | 130 to 131 |
| C=C(C(=O)O)c1ccc2cc(OC)ccc2c1 | 175 |
| C[C@H](NC(=O)OCc1ccccc1)C(=O)N[C@@H](C)C(=O)Nc1ccccc1 | 219 to 221 |
| N#Cc1cc(-c2ccc(Cl)cc2)nc(Oc2ccc(F)c(C(F)(F)F)c2)n1 | 131 to 132 |
| O=C(NCC/C=C\CCCNC(=O)c1ccc(OC(F)(F)F)cc1)c1ccc(OC(F)(F)F)cc1 | 111 to 113 |
| N#Cc1ccc(N2CCN(Cc3ccccc3)CC2)cc1 | 104 to 105 |

| Structure (SMILES) | melting point [°C] |
| --- | --- |
| CC(=O)Oc1c(C)c(C)c2c(c1C)CC(C)(C=O)O2 (stereo not given) | 78 to 79 |
| OCc1ccc(Cl)cc1C(O)c1ccccc1 (stereo not given) | 102 to 107 |
| COc1nc2c(S(=O)(=O)c3ccccc3)c(SC)nn2c(N2CCN(C)CC2)c1C | 207 to 208 |
| CC(C)[C@H]1C[C@@H]([C@H](CC2CCCCC2)NC(=O)OCc2ccccc2)OC1=O | 117 to 118 |
| CNC(C(N)=O)c1cn(C2CCc3c(F)cc(F)cc3C2)c(=S)[nH]1 (stereo not given) | 212 to 213 |
| Nc1cc(Oc2ccncc2)ccc1[N+](=O)[O-] | 170 to 175 |
| N#CC1(c2ccc(Cl)cc2)CCC(=O)CC1 | 94.5 to 97 |
| O=C(O)Cc1ccc(N2C(=O)C3CCCCC3C2=O)cc1 (stereo not given) | 219 to 221 |
| CCCCCCCCC(=O)NC1CC(C)(C)N(CC#N)C(C)(C)C1 | 68 |
| Cc1ccc(COc2ccc(C=C3CCCCC3=O)cc2)cc1 | 148 to 149 |
| O=C(Cc1ccccn1)NC1CCC2(O)C3Cc4ccc(O)c5c4C2(CCN3CC2CC2)C1O5 (stereo not given) | 210 to 212 |
| CC(NC(=O)c1cc(Cl)ccc1NC(=O)C1CC(=O)NN1)C1CC1 (stereo not given) | 248 |
| CS(=O)(=O)N1C[C@H](S)C[C@H]1COC(=O)Nc1ccccc1 | 148 |
| O=[N+]([O-])c1ccc(Nc2c(F)c(F)nc(F)c2F)c(C(F)(F)F)c1 | 104 to 105 |
| CC1(C)Oc2ccc(S(=O)(=O)c3ccccc3)cc2[C@@H](O)[C@@H]1Br (relative stereo) | 103 to 105 |
| CN(C)CCCOc1ccc2c(c1)SCC(=O)N2 | 120 to 121 |
| Cc1nc[nH]c1CSCCN=C(NC#N)NCCCCCCCCN | 122 to 124 |
| NS(=O)(=O)c1cc(C(=O)O)cc(N2CCCC2)c1Oc1ccccc1 | 214 to 217 |
| CCOC(=O)CNC(=O)C(CCl)NC(=O)OC(C)(C)C (stereo not given) | 71.5 to 72 |
| COc1nnccc1-c1ccccc1OCC(O)CNC(C)(C)C (stereo not given) | 110 |
| Cn1ccc2cc(N3Cc4ccc(N5CCCC5)cc4C3=O)ccc21 | 252 to 253 |
| OC1CCCCc2cc(OCC3CCCCC3)ccc21 (stereo not given) | 102 to 103 |
| CCN(CC)CCCNc1ncc2cc(-c3c(C)cccc3C)c(NC(=O)NC(C)(C)C)nc2n1 | 86 to 91 |
| Cc1c2c(c3ccccc3c1O)OCC2c1ccc(C(C)C)cc1 (stereo not given) | 94 to 96 |
| CC(C)(O)CNC(=O)CC1CN=C(c2cc3cc(Oc4ccc(S(C)(=O)=O)nc4)ccc3[nH]2)S1 (stereo not given) | 178 to 179 |
